Measurements published in patent US12012398B2, “Bicyclic compounds as androgen receptor modulators” (NIDO BIOSCIENCES, INC., priority 2021, dated 2024).

Tested on: LNCaP cells expressing ARR2PB-FireflyLuc and CMV-RenillaLuc
Test: LNCaP ARR2PB-FireflyLuc reporter assay, antagonist mode
Assay type: cell-based
Conditions: Homo sapiens, LNCaP, 48 h, +0.5 nM DHT, 48 h at 37° C., read-out: LNCap Antagonist Archive: IC50
Procedure, shortened: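 LNCaP cells carrying ARR2PB-firefly and CMV-Renilla luciferase reporters were exposed to compound with 0.5 nM DHT for 48 h at 37° C. Remaining activity was scaled between 0.5 nM DHT alone (high) and 10 uM enzalutamide + 0.5 nM DHT (low). IC50 from non-linear regression, reported in bins A–D.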

Structure (SMILES) | IC50 [µM]
Cn1c(C(=O)NC23CC(C)(C2)C3)cc2ccnc(Cl)c21 [Example 142, 7-chloro-1-methyl-N-{3-methylbicyclo[1.1.1]pentan-1-yl}pyrrolo[2,3-c]pyridine-2-carboxamide] | 1 to 10
Cn1c(C(=O)NC2CCC2)cc2ccnc(Cl)c21 [Example 143, 7-chloro-N-cyclobutyl-1-methylpyrrolo[2,3-c]pyridine-2-carboxamide] | 0.1 to 1
Cn1c(C(=O)NC2(C)CCC2)cc2ccnc(Cl)c21 [Example 147, 7-chloro-1-methyl-N-(1-methylcyclobutyl)pyrrolo[2,3-c]pyridine-2-carboxamide] | 0.1 to 1
Cn1c(C(=O)NC(C)(C)C)cc2ccnc(Cl)c21 [Example 148, N-tert-butyl-7-chloro-1-methylpyrrolo[2,3-c]pyridine-2-carboxamide] | 0.1 to 1
Cn1c(C(=O)NC2CC3(CC3)C2)cc2ccnc(Cl)c21 [Example 149, 7-chloro-1-methyl-N-{spiro[2.3]hexan-5-yl}pyrrolo[2,3-c]pyridine-2-carboxamide] | 1 to 10
Cn1c(C(=O)NC2CC3(CCC3)C2)cc2ccnc(Cl)c21 [Example 150, 7-chloro-1-methyl-N-{spiro[3.3]heptan-2-yl}pyrrolo[2,3-c]pyridine-2-carboxamide] | 1 to 10
CCn1c(C(=O)N(C)C23CC(F)(C2)C3)cc2ccnc(C#N)c21 [Example 151, 7-cyano-1-ethyl-N-(3-fluorobicyclo[1.1.1]pentan-1-yl)-N-methyl-1H-pyrrolo[2,3-c]pyridine-2-carboxamide] | 0.1 to 1
Cc1nccc2cc(C(=O)NC34CCC(C3)C4)n(C)c12 [Example 152, N-(bicyclo[2.1.1]hexan-1-yl)-1,7-dimethyl-1H-pyrrolo[2,3-c]pyridine-2-carboxamide] | 1 to 10
CCn1c(C(=O)N(C)C23CC(F)(C2)C3)cc2ccnc(Cl)c21 [Example 153, 7-chloro-1-ethyl-N-(3-fluorobicyclo[1.1.1]pentan-1-yl)-N-methyl-1H-pyrrolo[2,3-c]pyridine-2-carboxamide] | < 0.1
Cn1c(C(=O)NC23CC(F)(C2)C3)cc2ccnc(C(F)(F)F)c21 [Example 154, N-(3-fluorobicyclo[1.1.1]pentan-1-yl)-1-methyl-7-(trifluoromethyl)-1H-pyrrolo[2,3-c]pyridine-2-carboxamide] | 1 to 10
Cn1c(C(=O)NC23CC(C2)C3)cc2ccc(C#N)cc21 [Example 155, N-(bicyclo[1.1.1]pentan-1-yl)-6-cyano-1-methyl-1H-indole-2-carboxamide] | 1 to 10
Cn1c(C(=O)NC23CC(C2)C3)cc2ccncc21 [Example 156, N-(bicyclo[1.1.1]pentan-1-yl)-1-methyl-1H-pyrrolo[2,3-c]pyridine-2-carboxamide] | 0.1 to 1
Cn1c(C(=O)NC23CC(C2)C3)cc2ccc(F)cc21 [Example 157, N-(bicyclo[1.1.1]pentan-1-yl)-6-fluoro-1-methyl-1H-indole-2-carboxamide] | 1 to 10
O=C(NC12CC(F)(C1)C2)c1cc2c(Cl)nccc2s1 [Example 158, 4-chloro-N-(3-fluorobicyclo[1.1.1]pentan-1-yl)thieno[3,2-c]pyridine-2-carboxamide] | 0.1 to 1
COCCN(C(=O)c1cc2ccc(F)cc2[nH]1)c1ccc(C#N)cn1 [Example 159] | 1 to 10
COCCN(C(=O)c1cc2ccc(F)cc2[nH]1)c1ccc(Cl)cn1 [Example 160] | 1 to 10
COCCN(C(=O)c1cc2ccc(F)cc2[nH]1)c1ncccn1 [Example 161] | 1 to 10
